14 molecules from paper doi:10.1101/2024.08.19.608619, “Discovery of potent SARS-CoV-2 nsp3 macrodomain inhibitors uncovers lack of translation to cellular antiviral response” (bioRxiv, 2024) can be followed below.

The structures appear in SMILES notation. Where two headings read alike, the source gives them in different places.

Assay [1] has as its target T1, SARS-CoV-2 nsp3-mac1 (Severe acute respiratory syndrome coronavirus 2, UniProt P0DTD1). Kind of assay: biochemical. The assay is classed as biochemical. The conditions noted are these: SARS-CoV-2 nsp3 macrodomain TR-FRET single point, n=2. A general note: Time-resolved FRET reads energy transfer from a long-lived donor to a nearby acceptor.
The target in assay [2] is T1, SARS-CoV-2 nsp3-mac1. Put plainly: biochemical. Set-up: SARS-CoV-2 nsp3 macrodomain TR-FRET single point, per cent inhibition, n=2.
The mark [3] stands for this setting: read-out: perc_inhibition_mean, batch_name=ASAP-0000296-001.
Setting [4] is: read-out: perc_inhibition_mean, batch_name=ASAP-0000297-001.
[5] abbreviates: read-out: perc_inhibition_mean, batch_name=ASAP-0000298-001.
Where [6] appears, read: read-out: perc_inhibition_mean, batch_name=ASAP-0000299-001.
Setting [7] is: read-out: perc_inhibition_mean, batch_name=ASAP-0000300-001.
Where [8] appears, read: read-out: perc_inhibition_mean, batch_name=ASAP-0000301-001.
Where [9] appears, read: read-out: perc_inhibition_mean, batch_name=ASAP-0000302-001.
Where [10] appears, read: read-out: perc_inhibition_mean, batch_name=ASAP-0000303-001.
Setting [11] is: read-out: perc_inhibition_mean, batch_name=ASAP-0000304-001.
Setting [12] is: read-out: perc_inhibition_mean, batch_name=ASAP-0000305-001.
The mark [13] stands for this setting: read-out: perc_inhibition_mean, batch_name=ASAP-0000306-001.
The mark [14] stands for this setting: read-out: perc_inhibition_mean, batch_name=ASAP-0000307-001.
The mark [15] stands for this setting: read-out: perc_inhibition_mean, batch_name=ASAP-0000308-001.
The mark [16] stands for this setting: read-out: perc_inhibition_mean, batch_name=ASAP-0000309-001.

Take `O=C(Nc1ccccc1)Nc1ccc(C(=O)N[C@H]2CC[C@H](CO)CC2)cc1` [ASAP-0000296]: the perc_inhibition_mean on SARS-CoV-2 nsp3-mac1 [1] (concentration 49.75 uM) is on record as -0.639%; at SARS-CoV-2 nsp3-mac1 [1] (concentration 99.5 uM) it was -2.577%. On SARS-CoV-2 nsp3-mac1 [2] (setting [3]), the inhibition at 49.75 µM was -0.639%. For the same molecule, at SARS-CoV-2 nsp3-mac1 [2] (setting [3]), the inhibition at 99.5 µM is -2.58%.

Take `CC1(C)CN(C(=O)c2ccc(NC(=O)Nc3ccccc3)cc2)C[C@@]1(F)C(=O)O` [ASAP-0000297]: on SARS-CoV-2 nsp3-mac1 [1] (concentration 49.75 uM), the perc_inhibition_mean was -2.566%. In addition, the perc_inhibition_mean at SARS-CoV-2 nsp3-mac1 [1] (concentration 99.5 uM) is reported as -5.193%. Also, on SARS-CoV-2 nsp3-mac1 [2] (setting [4]), the inhibition at 49.75 µM is -2.57% and the inhibition at 99.5 µM is -5.19%.

In the case of `O=C(CCN(Cc1cccc(Cl)c1)C(=O)C1(F)CCCCC1)N1CCNCC1` [ASAP-0000298], the perc_inhibition_mean on SARS-CoV-2 nsp3-mac1 [1] (concentration 49.75 uM) is -3.576%. Besides, the perc_inhibition_mean on SARS-CoV-2 nsp3-mac1 [1] (concentration 99.5 uM) is listed as 0.185%. Moreover, at SARS-CoV-2 nsp3-mac1 [2] (setting [5]), the inhibition at 49.75 µM is -3.58% and the inhibition at 99.5 µM was found to be 0.185%.

As to `CCN(Cc1cccnc1)C(=O)c1ccc(NC(=O)Nc2ccccc2)cc1` [ASAP-0000299], on SARS-CoV-2 nsp3-mac1 [1] (concentration 49.75 uM), the perc_inhibition_mean was found to be 3.632%. Besides, the perc_inhibition_mean on SARS-CoV-2 nsp3-mac1 [1] (concentration 99.5 uM) is -7.091%. For the same molecule, at SARS-CoV-2 nsp3-mac1 [2] (setting [6]), the inhibition at 49.75 µM came to 3.63% and the inhibition at 99.5 µM is -7.09%.

For `Cc1n[nH]cc1CN(C)C(=O)c1ccc(NC(=O)Nc2ccccc2)cc1` [ASAP-0000300], the perc_inhibition_mean was -3.77% at SARS-CoV-2 nsp3-mac1 [1] (concentration 49.75 uM) and -0.031% on SARS-CoV-2 nsp3-mac1 [1] (concentration 99.5 uM). The inhibition at 49.75 µM at SARS-CoV-2 nsp3-mac1 [2] (setting [7]) was -3.77%. Moreover, the inhibition at 99.5 µM at SARS-CoV-2 nsp3-mac1 [2] (setting [7]) is -0.031%.

On to `C[C@@H]1CN(C(=O)c2ccc(NC(=O)Nc3ccccc3)cc2)CC(=O)N1` [ASAP-0000301], for which the perc_inhibition_mean was -0.707% at SARS-CoV-2 nsp3-mac1 [1] (concentration 49.75 uM) and 0.29% at SARS-CoV-2 nsp3-mac1 [1] (concentration 99.5 uM). Moreover, the inhibition at 49.75 µM on SARS-CoV-2 nsp3-mac1 [2] (setting [8]) was -0.707%. Besides, at SARS-CoV-2 nsp3-mac1 [2] (setting [8]), the inhibition at 99.5 µM is 0.29%.

For the molecule `C[C@@H]1[C@H](O)CCCN1C(=O)c1ccc(NC(=O)Nc2ccccc2)cc1` [ASAP-0000302], the perc_inhibition_mean on SARS-CoV-2 nsp3-mac1 [1] (concentration 49.75 uM) is recorded as -2.963%. In addition, the perc_inhibition_mean on SARS-CoV-2 nsp3-mac1 [1] (concentration 99.5 uM) is given as -2.724%. Besides, at SARS-CoV-2 nsp3-mac1 [2] (setting [9]), the inhibition at 49.75 µM is -2.96% and the inhibition at 99.5 µM was -2.72%.

For the molecule `O=C(Nc1ccccc1)Nc1ccc(C(=O)N2CCn3nccc3C2)cc1` [ASAP-0000303], the perc_inhibition_mean on SARS-CoV-2 nsp3-mac1 [1] (concentration 49.75 uM) was -3.111%. The perc_inhibition_mean at SARS-CoV-2 nsp3-mac1 [1] (concentration 99.5 uM) was determined as 2.299%. Besides, on SARS-CoV-2 nsp3-mac1 [2] (setting [10]), the inhibition at 49.75 µM is -3.11% and the inhibition at 99.5 µM is 2.3%.

As to `O=C(Nc1ccccc1)Nc1ccc(C(=O)NCc2ccnc(F)c2)cc1` [ASAP-0000304], the perc_inhibition_mean at SARS-CoV-2 nsp3-mac1 [1] (concentration 49.75 uM) is given as -0.36%. Further, on SARS-CoV-2 nsp3-mac1 [1] (concentration 99.5 uM), the perc_inhibition_mean worked out at 4.92%. Further, at SARS-CoV-2 nsp3-mac1 [2] (setting [11]), the inhibition at 49.75 µM was -0.36% and the inhibition at 99.5 µM came to 4.92%.

For the molecule `CC1(C)CNCCN1C(=O)c1ccc(NC(=O)Nc2ccccc2)cc1` [ASAP-0000305], on SARS-CoV-2 nsp3-mac1 [1] (concentration 49.75 uM), the perc_inhibition_mean came out at 2.242%. Besides, the perc_inhibition_mean at SARS-CoV-2 nsp3-mac1 [1] (concentration 99.5 uM) stood at 1.393%. For the same molecule, at SARS-CoV-2 nsp3-mac1 [2] (setting [12]), the inhibition at 49.75 µM worked out at 2.24% and the inhibition at 99.5 µM came to 1.39%.

Take `NCC(F)(F)CNC(=O)c1ccc(NC(=O)Nc2ccccc2)cc1` [ASAP-0000306]: the perc_inhibition_mean on SARS-CoV-2 nsp3-mac1 [1] (concentration 49.75 uM) was -0.965%. Also, the perc_inhibition_mean at SARS-CoV-2 nsp3-mac1 [1] (concentration 99.5 uM) is listed as -1.174%. Further, on SARS-CoV-2 nsp3-mac1 [2] (setting [13]), the inhibition at 49.75 µM is -0.965% and the inhibition at 99.5 µM is -1.17%.

Turning to `Cn1cc(NC(=O)c2ccc(NC(=O)Nc3ccccc3)cc2)c(C#N)n1` [ASAP-0000307], the perc_inhibition_mean on SARS-CoV-2 nsp3-mac1 [1] (concentration 49.75 uM) is 2.492%; on SARS-CoV-2 nsp3-mac1 [1] (concentration 99.5 uM), -0.539%. The inhibition at 49.75 µM at SARS-CoV-2 nsp3-mac1 [2] (setting [14]) stood at 2.49%. For the same molecule, at SARS-CoV-2 nsp3-mac1 [2] (setting [14]), the inhibition at 99.5 µM was -0.539%.

For `O=C(Nc1ccccc1)Nc1ccc(C(=O)NCCc2cccnc2)cc1` [ASAP-0000308], at SARS-CoV-2 nsp3-mac1 [1] (concentration 49.75 uM), the perc_inhibition_mean turned out to be 1.269%. Moreover, the perc_inhibition_mean on SARS-CoV-2 nsp3-mac1 [1] (concentration 99.5 uM) worked out at 10.372%. Moreover, at SARS-CoV-2 nsp3-mac1 [2] (setting [15]), the inhibition at 49.75 µM was determined as 1.27% and the inhibition at 99.5 µM worked out at 10.4%.

On to `COc1cccc(NC(=O)c2ccc(NC(=O)Nc3ccccc3)cc2)n1` [ASAP-0000309], for which the figures for the perc_inhibition_mean at SARS-CoV-2 nsp3-mac1 [1] (concentration 49.75 uM) and on SARS-CoV-2 nsp3-mac1 [1] (concentration 99.5 uM) were 4.647% and 5.367%, respectively. Besides, the inhibition at 49.75 µM on SARS-CoV-2 nsp3-mac1 [2] (setting [16]) worked out at 4.65%. Moreover, the inhibition at 99.5 µM at SARS-CoV-2 nsp3-mac1 [2] (setting [16]) is 5.37%.
